According to patent publication US20200164005A1, “PHARMACEUTICAL COMPOSITIONS OF A BILE ACID DERIVATIVE AND MICROBIOME AND USES THEREOF” (Intercept Pharmaceuticals, Inc., priority 2017, published 2020):

Legend:
[1] = tested on: MetaCyc pathways of the gut microbiome; assay: MetaCyc pathway differential abundance analysis of stool metagenome; format: in vivo, human
From the text: (§1) HUMAnN2 (Abubucker et al., PLoS Comput. Biol. 8, e1002358 (2012)) was used to calculate gene and pathway abundance from metagenomic sequencing data. Uniref50 (UniProt® Consortium, Nucleic Acids Res. 43, D204 (2015)) was used for gene family definition. MetaCyc (Caspi et al., Nucleic Acids Res. 42, D459 (2014)) and KEGG (Kanehisa and Goto, Nucleic Acids Res. 28, 27 (2000); Kanehisa et al., Nucleic Acids Res. 44, D457 (2016)) were used for pathway analysis. • Gene family identification: Initially, 989251 gene families were identified from the dataset by HUMAnN2. Quantile normalization was implemented. For each sample, the RPK values were added up till 90% percentile of all genes (normalization factor, nf). RPK value of each gene in each sample was then divided by the nf of the sample, and multiplied with the mean of nf of all samples. 683270 uncharacterized genes were removed. Genes undetected in over 90% of samples (101994) were removed. 203987 genes were kept. Due to the large number of genes identified, 25% of the most varying genes were selected for further analysis. The most varying genes were defined by the coefficient variation (cv=sd/mean) of log 2 transformed value. • MetaCyc pathway identification: HUMAnN2 identified 567 MetaCyc pathways from the dataset. Quantile normalization was then performed. For each sample, the abundance values were added up till 90% percentile of all pathways (normalization factor, nf). Each pathway abundance in each sample was divided by the nf of the sample, and then multiplied with the mean of nf for all samples. The low abundance pathways (52), which were not detected on over 90% of all samples, were removed. 515 high quality MetaCyc pathways were kept for further analysis. • KEGG pathway identification: HUMAnN2 identified 160 KEGG pathways from the dataset. Quantile normalization was applied, and low abundance pathways were removed. 66 high quality KEGG pathways were kept for further analysis.
gene abundance˜aov(day*OCAdose+error(subject ID)) • Pathway differential abundance analysis: For each of the identified pathways, repeated measure ANOVA was also performed to study the time effect and OCA dose effect on pathway abundance change.
pathway abundance˜aov(day*OCAdose+error(subject ID)) • FGF19 analysis: The GEE model was applied in order to study the relationship of FGF19 change with the microbiome, gene family, and the pathway abundance change over time. The R function geeglm from R package geepack was used for gee modeling. Both FGF19 level and species/gene/pathway relative abundance were log 2 transformed before applying GEE model. […]

[2] = tested on: gut microbiome gene families; assay: Gene differential abundance analysis of stool metagenome (HUMAnN2, Uniref50/Uniref90, transposases); format: in vivo, human
From the text: The adaptors, human reads contamination, and low quality sequences were removed from the raw sequencing data using software kneaddata. Trimmomatic (Bolger et al., Bioinformatics 30, 2114 (2014)) was invoked by kneaddata for removing adaptor sequence, trimming low quality bases, and removing low quality reads. Bowtie (Langmead and Salzberg, Nat. Methods 9, 357 (2012)) was invoked by kneaddata for human reads detection. • Removing sequencing noise: For each sample, if the abundance of one species was smaller than 0.05% of the maximum abundance of all species in the sample, it was considered as noise, and the abundance of this species in the sample was set as 0. • Imputing missing value (i.e. Os): Because log 2 transformation was needed in further analysis, adjustment factor (e) was added to the abundance matrix, where e equals 50% of the minimum non-zero abundance value of all samples. • Removing low abundance species: A species was removed if the relative abundance was lower than 0.1% in >=95% of samples. 128 species was kept for further analysis.
as §1
• Species differential abundance analysis: The time effect of OCA treatment was studied on three OCA dose groups separately using Friedman rank test. The dose effect of OCA treatment was studied on three time point separately, and Kruskal-Wallis test was used. • Gene differential abundance analysis: For each of the most varying genes, repeated-measure ANOVA was performed to study the time effect and OCA dose effect on gene abundance change. […]

[3] = repeated measure ANOVA, FDR<0.05

SMILES: CC[C@H]1[C@@H](O)[C@@H]2[C@H](CC[C@]3(C)[C@@H]([C@H](C)CCC(=O)O)CC[C@@H]23)[C@@]2(C)CC[C@@H](O)C[C@@H]12 [OCA, 3α,7α-dihydroxy-6α-ethyl-5β-cholan-24-oic acid]
- pathways associated with nucleotide and amino acid biosynthesis ([1]; OCA treatment): enriched
- number of MetaCyc pathways differentially abundant over time ([1]; out of 515, FDR<0.05 for time effect): 41
- number of MetaCyc pathways with significant time effects ([1]; repeated measure ANOVA, FDR<0.01, Example 7): 135
- OCA dose effect on MetaCyc pathway abundance [1, 3]: No OCA dose effect or OCA dose×day interaction was observed
- number of genes with significant time-dependent effects in response to OCA treatment ([2]; Uniref90 high stringency genomic analysis, eight bacterial species): 782
- representation of bacterial transposase genes ([2]; all three OCA doses): robust increase
- glycosyl transferase genes in the presence of OCA ([2]; in vivo): significantly increased
- OCA dose effect on gene abundance [2, 3]: No OCA dose effect or OCA dose×day interaction was observed
- number of genes differentially abundant over time ([2]; repeated measure ANOVA, FDR<0.05 for time effect): 112
